ChEMBL document CHEMBL1158695, “Cytotoxic sterol derivatives from a marine sponge Homaxinella sp” (2005)
Converted amounts (≈) assume the structure as drawn.

Tests used:
Settings in all cases: read-out: ED50 (the source's name)
XF498 = assay: Cytotoxicity against human XF498 cells; assay type: functional
SK-MEL-2 = assay: Cytotoxicity against human SK-MEL-2 cells; assay type: functional
[1] = tested on: HCT-15 (human colon cancer); assay: Cytotoxicity against human HCT15 cells
SK-OV-3 = assay: Cytotoxicity against human SKOV3 cells; assay type: functional
A549 = assay: Cytotoxicity against human A549 cells; assay type: functional

## CC(C)C/C=C/[C@@H](C)[C@H]1CCC2C3=CC(=O)O[C@@]3(O)CC[C@@]21C (stereo not given in full) [DEMETHYLINCISTEROL A1]
XF498
  EC50: 1.08 µg/mL (≈ 3.39 µM)
SK-MEL-2
  EC50: 1.94 µg/mL (≈ 6.09 µM)
[1]
  EC50: 1.42 µg/mL (≈ 4.46 µM)
SK-OV-3
  EC50: 1.7 µg/mL (≈ 5.34 µM)
A549
  EC50: 2.79 µg/mL (≈ 8.76 µM)

## CC(C)[C@H](C)/C=C/[C@@H](C)[C@H]1CCC2C3=CC(=O)O[C@@]3(O)CC[C@@]21C (stereo not given in full) [DEMETHYLINCISTEROL A2]
XF498
  EC50: 0.93 µg/mL (≈ 2.8 µM)
SK-MEL-2
  EC50: 1.21 µg/mL (≈ 3.64 µM)
[1]
  EC50: 1.28 µg/mL (≈ 3.85 µM)
SK-OV-3
  EC50: 1.49 µg/mL (≈ 4.48 µM)
A549
  EC50: 1.51 µg/mL (≈ 4.54 µM)

## CC(C)[C@@H](C)/C=C/[C@@H](C)[C@H]1CCC2C3=CC(=O)O[C@@]3(O)CC[C@@]21C (stereo not given in full) [DEMETHYLINCISTEROL A3]
XF498
  EC50: 1.14 µg/mL (≈ 3.43 µM)
SK-MEL-2
  EC50: 1.3 µg/mL (≈ 3.91 µM)
[1]
  EC50: 1.39 µg/mL (≈ 4.18 µM)
SK-OV-3
  EC50: 1.97 µg/mL (≈ 5.93 µM)
A549
  EC50: 1.62 µg/mL (≈ 4.87 µM)

## CC[C@@H](/C=C/[C@@H](C)[C@H]1CCC2C3=CC(=O)O[C@@]3(O)CC[C@@]21C)C(C)C (stereo not given in full) [DEMETHYLINCISTEROL A4]
XF498
  EC50: 0.68 µg/mL (≈ 1.96 µM)
SK-MEL-2
  EC50: 0.55 µg/mL (≈ 1.59 µM)
[1]
  EC50: 0.65 µg/mL (≈ 1.88 µM)
SK-OV-3
  EC50: 0.79 µg/mL (≈ 2.28 µM)
A549
  EC50: 0.92 µg/mL (≈ 2.66 µM)

## COc1cccc2c1C(=O)c1c(O)c3c(c(O)c1C2=O)C[C@@](O)(C(=O)CO)C[C@@H]3O[C@H]1C[C@H](N)[C@H](O)[C@H](C)O1 [DOXORUBICIN]
XF498
  EC50: 0.07 µg/mL (≈ 0.129 µM)
SK-MEL-2
  EC50: 0.04 µg/mL (≈ 0.0736 µM)
[1]
  EC50: 0.17 µg/mL (≈ 0.313 µM)
SK-OV-3
  EC50: 0.09 µg/mL (≈ 0.166 µM)
A549
  EC50: 0.11 µg/mL (≈ 0.202 µM)

## CCCCO[C@@H]1C=C2[C@@H]3CC[C@H]([C@H](C)/C=C/CC(C)C)[C@@]3(C)CC[C@@H]2[C@@]2(C)CC[C@H](O)C[C@]12O [HOMAXISTEROL A1]
XF498
  EC50: 6.33 µg/mL (≈ 13.4 µM)
SK-MEL-2
  EC50: 6.88 µg/mL (≈ 14.6 µM)
[1]
  EC50: 7.62 µg/mL (≈ 16.1 µM)
SK-OV-3
  EC50: 7.57 µg/mL (≈ 16 µM)
A549
  EC50: 8.54 µg/mL (≈ 18.1 µM)

## CCCCO[C@@H]1C=C2[C@@H]3CC[C@H]([C@H](C)/C=C/[C@@H](C)C(C)C)[C@@]3(C)CC[C@@H]2[C@@]2(C)CC[C@H](O)C[C@]12O [HOMAXISTEROL A2]
XF498
  EC50: 4.17 µg/mL (≈ 8.57 µM)
SK-MEL-2
  EC50: 3.69 µg/mL (≈ 7.58 µM)
[1]
  EC50: 4.4 µg/mL (≈ 9.04 µM)
SK-OV-3
  EC50: 4.43 µg/mL (≈ 9.1 µM)
A549
  EC50: 6.23 µg/mL (≈ 12.8 µM)

## CCCCO[C@@H]1C=C2[C@@H]3CC[C@H]([C@H](C)/C=C/[C@H](C)C(C)C)[C@@]3(C)CC[C@@H]2[C@@]2(C)CC[C@H](O)C[C@]12O [HOMAXISTEROL A3]
XF498
  EC50: 5.03 µg/mL (≈ 10.3 µM)
SK-MEL-2
  EC50: 6.1 µg/mL (≈ 12.5 µM)
[1]
  EC50: 7.1 µg/mL (≈ 14.6 µM)
SK-OV-3
  EC50: 7.85 µg/mL (≈ 16.1 µM)
A549
  EC50: 8.42 µg/mL (≈ 17.3 µM)

## CCCCO[C@@H]1C=C2[C@@H]3CC[C@H]([C@H](C)/C=C/[C@H](CC)C(C)C)[C@@]3(C)CC[C@@H]2[C@@]2(C)CC[C@H](O)C[C@]12O [HOMAXISTEROL A4]
XF498
  EC50: 34.1 µg/mL (≈ 68.1 µM)
SK-MEL-2
  EC50: > 30 µg/mL
[1]
  EC50: > 30 µg/mL
SK-OV-3
  EC50: > 30 µg/mL
A549
  EC50: > 30 µg/mL
